Patent US9617330B2, “Chemorepulsion of cells” (Celtaxsys, Inc., priority 2006, dated 2017)
Where two headings read alike, the source gives them in different places.

Key:
[1] = system: Eo-HL60 (HL-60 clone 15 differentiated to eosinophil-like phenotype); assay: Trans-well migration assay (Example 1), net migratory response; type: cell-based, human; conditions: net observed response
[2] = system: B-cell; assay: as above; conditions: net observed response
Method: (§1) Prior to beginning the assay 0.5% Fetal Calf Serum (FCS) in Iscove's Modified Dulbecco's Medium (IMDM) is prepared and stored on ice (Assay Medium). Migratory cells at a concentration of 2×10^7 cells/ml are suspended in Assay Medium. T-cells isolated from donor blood or buffy coats are allowed to rest overnight in Assay Medium at 37° C. in 5% CO2. Neutrophils, monocytes and B cells are utilized as soon as they are purified from donor blood or other source of human origin. Four serial (10×) dilutions of the ligand are then prepared in Assay Medium (normally 10 μg/ml to 0.01 μg/ml).
(§2) Plates are removed from the packaging, leaving the membrane behind and intact. The membrane is set aside. Into each well is pipetted 31 μl of solution. For media controls and fugetaxis (chemorepellent) samples, Assay Medium is used. For chemoattraction samples, the appropriate dilution of agent in assay medium is used.
(§3) Using a sterile needle, all small bubbles present in each well are popped and the membrane is carefully placed onto the plate, starting at one side and slowly lowering the other edge onto the plate.
(§4) Then 29 μl is pipetted into each circle imprinted on the polycarbonate or polyester membrane. For media controls and chemoattraction samples, Assay Medium is used. For fugetaxis (chemorepellent) samples, the appropriate dilution of ligand in assay medium is used.
(§5) To each 29 uL aliquot above is added 2 μl of cells (40,000 cells). It is important to ensure that before beginning the cells are well suspended and that they are mixed. This mixing can be accomplished by agitating the tube between each addition.
(§6) The plate is then covered with the supplied lid and incubated 1-3 hours in a humidified incubator at 37° C. in 5% CO2. Following the incubation period, the liquid from the top of the plate is removed with a tissue or similar blotting material (e.g. a Kimwipe). The membrane is carefully removed from the top of the plate and discarded. […] Using a multichannel pipettor, each well of the microplate is rinsed with 25 μl Phosphate Buffered Saline (Mediatech #21-040-CV) and transferred to the same wells in the white microplate. Using a multichannel pipettor, 50 μl CellTiter-Glo Luminescent Cell Viability Assay (Promega #G7572) is added to each well and mixed.
(§7) The plate is read using the Perkin Elmer Victor^3V plate reader using the Large Aperture Luminescence setting at 8 mm height above the plate with a dwell time of 1 s to quantify the number of migrated cells.
(§8) The results reported reflect the net observed migratory response of the cells to the ligand and are not based on the definition of unimodal fugetaxins.

[3] = system: Neutrophils; assay: High throughput transmigration assay (Example 9), chemorepulsion; type: cell-based, human
[4] = system: Monocyte; assay: Trans-well migration assay (Example 1), net migratory response
Method: as §1, §2, §3, §4, §5, §6, §7, §8

[5] = Neutrophils, mean of three donors at concentration of highest activity, range 0.00125-1.25 μM
[6] = neutrophils, 0.00125 μM, one donor, triplicate, ± SD
[7] = neutrophils, 0.0125 μM, one donor, triplicate, ± SD
[8] = neutrophils, 0.125 μM, one donor, triplicate, ± SD
[9] = neutrophils, 1.25 μM, one donor, triplicate, ± SD
[10] = Monocyte, net observed response

O.O.O=c1c(O)c(-c2ccc(O)c(O)c2)oc2cc(O)cc(O)c12 [Quercetin dihydrate, reference compound]
Migratory Response [1]: chemorepulsion
Migratory Response [2]: chemorepulsion

Antithrombin III
Repellent Index ([3]; Neutrophils, mean of three donors at concentration of highest activity, range 0.000573-0.573 μM): 2.2
Repellent Index ([3]; neutrophils, 0.000573 μM, one donor, triplicate, ± SD): 1.08 ± 0.36
Repellent Index ([3]; neutrophils, 0.00573 μM, one donor, triplicate, ± SD): 1.63 ± 0.67
Repellent Index ([3]; neutrophils, 0.0573 μM, one donor, triplicate, ± SD): 3.17 ± 0.98
Repellent Index ([3]; neutrophils, 0.573 μM, one donor, triplicate, ± SD): 5.55 ± 1.71

N-acetylmuramyl (MDP) [reference compound]
Migratory Response [1]: chemorepulsion
Migratory Response [4]: chemorepulsion

(−)-Epigallocatechin Gallate [EGCG ((−)-Epigallocatechin Gallate), reference compound]
Migratory Response [2]: chemorepulsion

CC[C@H]1OC(=O)[C@H](C)[C@@H](O[C@H]2C[C@@](C)(OC)[C@@H](O)[C@H](C)O2)[C@H](C)[C@@H](O[C@@H]2O[C@H](C)C[C@H](N(C)C)[C@H]2O)[C@](C)(O)C[C@@H](C)C(=O)[C@H](C)[C@@H](O)[C@]1(C)O [Erythromycin, reference compound]
Repellent Index [3, 5]: 4.8
Repellent Index [3, 6]: 1.75 ± 0.40
Repellent Index [3, 7]: 2.29 ± 1.61
Repellent Index [3, 8]: 3.29 ± 1.11
Repellent Index [3, 9]: 6.12 ± 2.53

Galectin-7: full-length galectin protein, purchased
Migratory Response [2]: chemorepulsion

HSP40 Human: heat shock protein; accession BAA08495
Migratory Response [1]: chemorepulsion
Repellent Index [3, 5]: 1.4
Migratory Response [4, 10]: chemorepulsion

COc1cc(CNC(=O)CCCC/C=C/C(C)C)ccc1O [Capsaicin, reference compound]
Migratory Response [2]: chemorepulsion

Concanavalin A
Migratory Response [4, 10]: chemorepulsion
Migratory Response [2]: chemorepulsion

CXCL2: chemokine
Repellent Index [3, 5]: 1.6

Eotaxin: chemokine
Migratory Response [2]: chemorepulsion

CC(=O)O[C@H]1C(=O)[C@@]2(C)[C@H]([C@H](OC(=O)c3ccccc3)[C@]3(O)C[C@H](OC(=O)[C@H](O)[C@@H](NC(=O)c4ccccc4)c4ccccc4)C(C)=C1C3(C)C)[C@]1(OC(C)=O)CO[C@@H]1C[C@@H]2O [Paclitaxel, reference compound]
Migratory Response [1]: chemorepulsion
Migratory Response [4, 10]: chemorepulsion

MCP-4: chemokine
Migratory Response [4, 10]: chemorepulsion
Migratory Response [2]: chemorepulsion

Lipid A Diphos [reference compound]
Migratory Response [1]: chemorepulsion

CC(C)=CCC[C@]1(C)[C@@H](CC=C(C)C)C[C@@]2(CC=C(C)C)C(=O)[C@]1(C(=O)C(C)C)C(=O)C(CC=C(C)C)=C2O [Hyperforin, reference compound]
Migratory Response [4]: chemorepulsion

Galectin-1: carbohydrate binding protein (galectin), full-length, purchased; accession P09382
Migratory Response [1]: chemorepulsion
Repellent Index [3, 5]: 2.3
Repellent Index [3, 6]: 0.80 ± 0.08
Repellent Index [3, 7]: 0.96 ± 0.22
Repellent Index [3, 8]: 1.05 ± 0.14
Repellent Index [3, 9]: 3.70 ± 0.29
Migratory Response [4, 10]: chemorepulsion

Oc1ccc(C=Cc2cc(O)cc(O)c2)cc1 [Resveratrol, reference compound]
Migratory Response [1]: chemorepulsion
Repellent Index [3, 5]: 1.4
Repellent Index [3, 6]: 2.65 ± 0.29
Repellent Index [3, 7]: 2.80 ± 0.32
Repellent Index [3, 8]: 2.05 ± 0.28
Repellent Index [3, 9]: 1.32 ± 0.50
Migratory Response [2]: chemorepulsion

O=c1c(-c2ccc(O)cc2)coc2cc(O)cc(O)c12 [Genistein, reference compound]
Repellent Index [3, 5]: 1.3
Migratory Response [2]: chemorepulsion

Tropomyosin
Repellent Index [3, 5]: 1.7
Repellent Index [3, 6]: 2.57 ± 0.73
Repellent Index [3, 7]: 2.26 ± 0.86
Repellent Index [3, 8]: 2.23 ± 0.68
Repellent Index [3, 9]: 1.67 ± 0.16

B1: HCC-1: chemokine (protein, UniProt Q16627 20-93, looked up)
C-C motif chemokine 14: TKTESSSRGPYHPSECCFTYTTYKIPRQRIMDYYETNSQCSKPGIVFITKRGHSVCTNPSDKWVQDYIKDMKEN
Migratory Response [2]: chemorepulsion

B2: Eotaxin-3: chemokine (protein, UniProt Q9Y258 24-94, looked up)
C-C motif chemokine 26: TRGSDISKTCCFQYSHKPLPWTWVRSYEFTSNSCSQRAVIFTTKRGKKVCTHPRKKWVQKYISLLKTPKQL
Migratory Response [4, 10]: chemorepulsion
Migratory Response [2]: chemorepulsion

B3: MIP-1 beta: chemokine (protein, UniProt P13236 24-92, looked up)
C-C motif chemokine 4: APMGSDPPTACCFSYTARKLPRNFVVDYYETSSLCSQPAVVFQTKRSKQVCADPSESWVQEYVYDLELN
Migratory Response [4, 10]: chemorepulsion
Migratory Response [2]: chemorepulsion

B4: SLC: chemokine (protein, UniProt O00585 24-134, looked up)
C-C motif chemokine 21: SDGGAQDCCLKYSQRKIPAKVVRSYRKQEPSLGCSIPAILFLPRKRSQAELCADPKELWVQQLMQHLDKTPSPQKPAQGCRKDRGASKTGKKGKGSKGCKRTERSQTPKGP
Migratory Response [4, 10]: chemorepulsion

B5: TARC: chemokine (protein, UniProt Q92583 24-94, looked up)
C-C motif chemokine 17: ARGTNVGRECCLEYFKGAIPLRKLKTWYQTSEDCSRDAIVFVTVQGRAICSDPNNKRVKNAVKYLQSLERS
Migratory Response [2]: chemorepulsion

B6: Eotaxin-2: chemokine (protein, UniProt O00175 27-119, looked up)
C-C motif chemokine 24: VVIPSPCCMFFVSKRIPENRVVSYQLSSRSTCLKAGVIFTTKKGQQFCGDPKQEWVQRYMKNLDAKQKKASPRARAVAVKGPVQRYPGNQTTC
Migratory Response [4, 10]: chemorepulsion
Migratory Response [2]: chemorepulsion

B7: MDC: chemokine (protein, UniProt O00626 25-93, looked up)
C-C motif chemokine 22: GPYGANMEDSVCCRDYVRYRLPLRVVKHFYWTSDSCPRPGVVLLTFRDKEICADPRVPWVKMILNKLSQ
Migratory Response [2]: chemorepulsion

B8: RANTES: chemokine (protein, UniProt P13501 24-91, looked up)
C-C motif chemokine 5: SPYSSDTTPCCFAYIARPLPRAHIKEYFYTSGKCSNPAVVFVTRKNRQVCANPEKKWVREYINSLEMS
Migratory Response [4, 10]: chemorepulsion
Migratory Response [2]: chemorepulsion

B9: Leukotactin-1: chemokine (protein, UniProt Q16663 22-113, looked up)
C-C motif chemokine 15: QFTNDAETELMMSKLPLENPVVLNSFHFAADCCTSYISQSIPCSLMKSYFETSSECSKPGVIFLTKKGRQVCAKPSGPGVQDCMKKLKPYSI
Migratory Response [2]: chemorepulsion

B10: HSP32 Rat: heat shock protein; accession P06762/AAH91164 (protein, UniProt P06762 1-289, looked up)
Heme oxygenase 1: MERPQLDSMSQDLSEALKEATKEVHIRAENSEFMRNFQKGQVSREGFKLVMASLYHIYTALEEEIERNKQNPVYAPLYFPEELHRRAALEQDMAFWYGPHWQEAIPYTPATQHYVKRLHEVGGTHPELLVAHAYTRYLGDLSGGQVLKKIAQKAMALPSSGEGLAFFTFPSIDNPTKFKQLYRARMNTLEMTPEVKHRVTEEAKTAFLLNIELFEELQALLTEEHKDQSPSQTEFLRQRPASLVQDTTSAETPRGKSQISTSSSQTPLLRWVLTLSFLLATVAVGIYAM
Migratory Response [1]: chemorepulsion
Repellent Index [3, 5]: 1.8

B11: Fractalkine: chemokine (protein, UniProt P78423 25-397, looked up)
Fractalkine: QHHGVTKCNITCSKMTSKIPVALLIHYQQNQASCGKRAIILETRQHRLFCADPKEQWVKDAMQHLDRQAAALTRNGGTFEKQIGEVKPRTTPAAGGMDESVVLEPEATGESSSLEPTPSSQEAQRALGTSPELPTGVTGSSGTRLPPTPKAQDGGPVGTELFRVPPVSTAATWQSSAPHQPGPSLWAEAKTSEAPSTQDPSTQASTASSPAPEENAPSEGQRVWGQGQSPRPENSLEREEMGPVPAHTDAFQDWGPGSMAHVSVVPVSSEGTPSREPVASGSWTPKAEEPIHATMDPQRLGVLITPVPDAQAATRRQAVGLLAFLGLLFCLGVAMFTYQSLQGCPRKMAGEMAEGLRYIPRSCGSNSYVLVPV
Migratory Response [4, 10]: chemorepulsion
Migratory Response [2]: chemorepulsion
